The text below walks through data of patent US8329230B2, “Natural hair care composition, methods for obtaining the same and use thereof” (priority 2004, dated 2012).

SMILES strings stand for the structures. “Also recorded” adds a separate entry of the source.

For data set [1], the system named is Cladosporium cladosporioides (Fres.) de Vries. The following applies: cited from earlier work.
The test system of data set [2] is chemotherapy induced alopecia. Put plainly: Chemotherapeutic agent (cyclophosphamide) induced alopecia model, topical extracts. Format: in vivo, rat pups of Sprague-Dawley strain. Here is the method:
Eight-day old rat pups of Sprague-Dawley strain of either sex, bred in Experimental Animal Facility of R&D Center, The Himalaya Drug Company, were used for the experiment. The animals were maintained at 22±3° C., 50-60% of humidity, 12 hours light and dark cycle.
Screening of Extracts in Chemotherapeutic Agent Induced Alopecia Model:
Three Groups of 8 rat pups are used. Group I served normal control and received saline at a dose of 10 ml/kg i.p. Group II & Group III animals received Cyclophosphamide (CP) at a dose of 50 mg/kg i.p. as a single dose. Test extracts PCPB-1 to PCPB-10, PCPB-1P to PCPB-10P and PCPB-1S to PCPB-10S were applied topically to Group III animals everyday from day one after Cyclophosphamide administration till the end of the study. On the 12th day of post Cyclophosphamide injection, the animals were graded for alopecia as given below.
2+—Moderately severe alopecia with more than 50% hair loss
3+—Severe and total alopecia.

A further data set concerns heart rate. The note with it: oral; cited from earlier work.
The next data set relates to male pattern baldness. The following applies: Phytother. Res. 15, 331-36, 2001; cited from earlier work.
Data set [3] has as its system murine hair epithelial cells. The following applies: Phytother. Res. 15, 331-36, 2001; cited from earlier work.

In the case of `COc1ccc2c(c1)O[C@H]1c3ccc(O)cc3OC[C@@H]21` [(−)-medicarpin, (−)-3-hydroxy-9-methoxy ptero carpan], the anti-fungal activity entry in data set [1] is “active”. In the case of `COc1ccc2c(c1)OC1c3ccc(OC(C)=O)cc3OCC21` (single isomer, unassigned; (-)) [(−)-medicarpin acetate], the anti-fungal activity entry in data set [1] is given as “active”. With `O=P1(N(CCCl)CCCl)NCCCO1` (stereo not drawn) [CP, Cyclophosphamide], the “hair growth, stereosome photograph” value in data set [2] (figure legends FIGS. 2, 3) was “scanty hairs”. The “alopecia, appearance of rat pups” value in data set [2] (figure legends FIGS. 5, 6) is recorded as “high degree of alopecia”. Also, the “hair follicles, photomicrograph of skin section” value in data set [2] (figure legends FIGS. 8-10) was “degenerating hair follicles with decrease in their numbers; also recorded: degenerating hair follicles with epidermal down growth”. Further, in data set [2] (mean ± SEM of 8 rat pups, graded 0 to 3+ on 12th day post CP), the “alopecia grade, Mean SEM” value came to 2.88 ± 0.13.

`Nc1cc(N2CCCCC2)nc(N)[n+]1[O-]` [Minoxidil]: the “effect on heart rate” value in the data set on heart rate is “reported to affect heart rate in some patients”. For `Oc1cc(O)c2c(c1)O[C@H](c1ccc(O)c(O)c1)[C@H](O)[C@H]2c1c(O)cc(O)c2c1O[C@H](c1ccc(O)c(O)c1)[C@H](O)C2` [Procyanidin B-2], the “potential as cure for male pattern baldness” value with male pattern baldness is “showed potential as promising cure”. Further, the “growth promoting effect on hair epithelial cells” value in data set [3] is listed as “acts as growth promoting factor”.
